In PMC6366430 (Journal of Enzyme Inhibition and Medicinal Chemistry, 2019):
“And” between values parts separate entries of the source, which are not always exact repeats. Equal values may be shown once. Read-outs that look alike come from different tables or passages of the source.

Tests used:
AChE from electric eel = target: T1, AChE from electric eel (Electrophorus electricus, UniProt O42275); assay: biochemical; settings: for IC50: AChE from electric eel, mean ± SD of triplicate independent experiments
T1 construct: purchased Sigma-Aldrich
T1 sequence (O42275 24-633): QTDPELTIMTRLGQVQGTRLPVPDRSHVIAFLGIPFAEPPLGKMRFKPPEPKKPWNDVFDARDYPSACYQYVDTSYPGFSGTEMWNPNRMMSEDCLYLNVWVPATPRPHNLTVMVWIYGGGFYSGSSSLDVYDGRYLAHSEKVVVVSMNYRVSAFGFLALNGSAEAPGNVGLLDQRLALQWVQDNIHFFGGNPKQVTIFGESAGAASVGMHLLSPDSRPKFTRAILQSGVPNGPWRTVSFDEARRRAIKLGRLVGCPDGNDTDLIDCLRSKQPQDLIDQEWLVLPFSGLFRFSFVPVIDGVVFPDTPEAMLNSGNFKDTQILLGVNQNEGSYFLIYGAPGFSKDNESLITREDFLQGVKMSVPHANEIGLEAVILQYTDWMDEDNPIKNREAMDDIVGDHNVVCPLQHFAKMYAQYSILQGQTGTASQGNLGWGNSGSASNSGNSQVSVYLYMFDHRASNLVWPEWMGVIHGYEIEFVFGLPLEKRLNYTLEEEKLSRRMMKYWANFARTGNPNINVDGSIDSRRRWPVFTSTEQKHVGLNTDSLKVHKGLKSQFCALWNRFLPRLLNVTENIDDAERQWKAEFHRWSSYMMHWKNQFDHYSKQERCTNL
Description: (§1) Activity of enzymes and inhibition kinetics were determined using a Bio-Rad iMark microplate reader based on a modification of the Ellman method.[14] ^, [15] Compounds were dissolved in DMSO. The assay solution which contained 60 µL 5,5′-Dithiobis(2-nitrobenzoic acid) (DTNB) at 1.1 mM, 30 µL AChE/BuChE at 0.20 U/mL (initial concentration) and 150 µL tested compound solution with different concentrations. Absorbance was then recorded at λ = 415 nm. […]
(§2) serially diluted. Negative (without treatment) and vehicle (DMSO, final concentration 0.2% v/v for AChE and 0.8% v/v for BuChE) controls were kept for reference.
(§3) Following, there were added 60 μL of 5,5′-Dithiobis(2-nitrobenzoic acid) (DTNB, Ellman's reagent) at 1.1 mM and 30 μL of electric eel acetylcholinesterase (EeAChE) or equine serum butyrylcholinesterase (EqBuChE) at 0.20 U/mL in the presence of 1 mg/mL bovine serum albumin (BSA). Absorbance was then recorded using an iMark plate reader (Bio-Rad) equipped with a λ = 415 nm light filter and this measure used as […]
(§4) acetylthiocholine iodide (ACTI) or S-butyrylthiocholine iodide (BCTI) were added and the absorbance recorded after a 10-minute incubation at 30 °C at λ = 415 nm for 3 times within 30 seconds. Enzyme activity was calculated as percentage of untreated control discounting the blank reference. The final inhibitor concentration ranged from 100 – 0.00001 μM for AChE (dillution factor = 10) and from 400 – 0.1 μM for BuChE (dillution factor = 4). IC50 values were calculated on Graphpad Prism 7.0 using the non-linear regression model for dose-response inhibition. […]

BuChE from horse serum = target: T2, BuChE from horse serum (Equus caballus, UniProt P81908); assay: biochemical; settings: mean ± SD of triplicate independent experiments
T2 construct: equine serum butyrylcholinesterase (EqBuChE); from tissue; host or cells: equine (horse) serum
T2 sequence (P81908 whole entry): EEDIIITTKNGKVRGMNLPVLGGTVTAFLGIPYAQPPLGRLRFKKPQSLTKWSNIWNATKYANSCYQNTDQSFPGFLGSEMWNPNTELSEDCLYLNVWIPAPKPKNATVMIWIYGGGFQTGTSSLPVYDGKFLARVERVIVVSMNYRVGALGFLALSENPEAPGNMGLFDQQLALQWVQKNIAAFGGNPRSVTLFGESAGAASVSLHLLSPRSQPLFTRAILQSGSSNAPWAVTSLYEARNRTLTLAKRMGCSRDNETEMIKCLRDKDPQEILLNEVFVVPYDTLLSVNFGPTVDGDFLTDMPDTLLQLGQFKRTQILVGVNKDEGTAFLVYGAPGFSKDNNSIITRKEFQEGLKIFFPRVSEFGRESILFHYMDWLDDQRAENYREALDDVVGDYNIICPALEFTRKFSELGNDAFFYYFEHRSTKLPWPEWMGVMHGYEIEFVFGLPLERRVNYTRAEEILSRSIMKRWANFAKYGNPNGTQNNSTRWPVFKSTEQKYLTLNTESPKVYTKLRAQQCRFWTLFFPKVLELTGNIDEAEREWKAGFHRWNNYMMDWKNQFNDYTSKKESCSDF
Description: as §1, §2, §3, §4

[1] = test system: N2a cells (neuroblastoma); assay: N2a neuroblastoma cell viability, MTT assay; format: cell-based, murine; settings: for Neuroblastoma cell viability, MTT reduction relative to control cells, Mean ± SD: 48 h; for cytotoxicity against N2a cells (in words): 48 h incubation, maximum tested concentration 50 µM
Description: N2a cells were cultured in Dulbecco’s modified Eagle’s medium supplemented with 10% fetal bovine serum and 0.1% gentamicin in a 5% CO2 atmosphere. N2a cells were transferred to a 96-well plate (∼10,000 cells/cm^2) and incubated for 24 h, before treatment with the compounds at 10 or 50 µM. Cell viability was evaluated by MTT (3-[4,5-dimethylthiazol-2-yl]-2,5-diphenyl tetrazolium bromide) assay.
Murine neuroblastoma cell (N2a) culture and cell viability assay.
N2a cells were cultured in Dulbecco’s modified Eagle’s medium supplemented with 10% fetal bovine serum and 0.1% gentamicin in a 5% CO2 atmosphere. N2a cells were transferred to a 96-well plate (~10,000 cells/cm2) and incubated for 24 h, before treatment with the compounds at 10 or 50 µM. After being treated, cells were grown for 48 hours. Cell viability was evaluated by MTT (3-[4,5-dimethylthiazol-2-yl]-2,5-diphenyl tetrazolium bromide) assay. MTT was added to a final concentration of 0.5 mg/mL into the wells (samples and controls), and the plates were incubated for 4 h at 37 °C. After, all the media was removed and produced formazan crystals were solubilized with DMSO and quantified by reading the OD at 570 nm in a 96-well plate reader (SpectraMax® Paradigm®, Molecular Devices). Means and standard deviations were calculated from triplicates.

[2] = target: T3, electric eel acetylcholinesterase (EeAChE) (Electrophorus electricus, UniProt O42275); assay: biochemical; format: biochemical; settings: for inhibition type in AChE: Lineweaver–Burk; for Ki’ (non-competitive inhibition constant) on AChE / Ki: ± SD of triplicate; for Ki: read-out: Ki (competitive inhibition constant) on AChE
T3 construct: purchased Sigma-Aldrich
T3 sequence (O42275 24-633): as the sequence (O42275 24-633) above
Description: as §1
(§5) The enzymatic kinetic of cholinesterase inhibition was determined according to adapted Ellman's method1. All of the solution were prepared in 0.02 M tris-HCl buffer (pH = 7.5), stock solutions of test compounds prepared in DMSO (50 mM), and the experiment conducted in triplicate. To a flat-bottom 96-well transparent plate were added 150μL of treatment solutions with inhibitors 4d and 6a at two different concentrations (Table 2) distributed in eight sets of triplicates each. Eight sets of untreated triplicates were used as negative control. Following, there were added 60 μL of 5,5′-Dithiobis(2-nitrobenzoic acid) (DTNB, Ellman's reagent) at 1.1 mM and 30 μL of electric eel acetylcholinesterase (EeAChE) or equine serum butyrylcholinesterase (EqBuChE) at 0.20 U/mL in presence of 1 mg/mL bovine serum albumin (BSA).
(§6) Absorbance was then recorded using an iMark plate reader (Bio-Rad) equipped with a λ = 415 nm light filter and this measure used as a blank reference. After 10-minute incubation at room temperature, 24 μL of acetylthiocholine iodide (ACTI) or S- […]
(§7) the absorbance recorded after incubation for 0, 5, 10, 15 and 20 minutes at room temperature at λ = 415 nm. The Lineweaver–Burk reciprocal plots were obtained by […]
(§8) plotting a 1/velocity versus 1/[substrate] graph for two different inhibitor concentrations […]
(§9) behavior, in ways the region to where the curves converge determine the type of inhibition observed. Ki, Ki' (competitive and noncompetitive inhibition constants respectively), Km (Michaelis-Menten constant) and Vmax values were calculated with Graphpad Prism 7.0 using the non-linear regression models for enzyme kinetics - inhibiton and enzyme kinects - substrate vs. velocity.

[3] = target: T4, equine serum butyrylcholinesterase (EqBuChE) (Equus caballus, UniProt P81908); assay: biochemical; format: biochemical; settings: for inhibition type in BuChE: Lineweaver–Burk; for Ki’ (non-competitive inhibition constant) on BuChE / Ki: ± SD of triplicate; for Ki: read-out: Ki (competitive inhibition constant) on BuChE
T4 construct: equine serum butyrylcholinesterase (EqBuChE); from tissue; host or cells: equine (horse) serum
T4 sequence (P81908 whole entry): as the sequence (P81908 whole entry) above
Description: as §1, §5, §6, §7, §8, §9

[4] = Ferric reducing ability of plasma (FRAP) antioxidant assay; settings: 50 µM final concentration, 10 min at 37 °C
Description: A 0.5 ml solution of coumarin compounds in methanol (50 µM final concentration) was mixed with 4.5 ml of the FRAP reagent. After 10 min of incubation at 37 °C, absorbance at 593 nm was measured using methanol as blank.[20] ^, [21] The calibration curve was prepared with quercetin and the results expressed as: antioxidant index based on quercetine (Q) (mmol Q/mol). The analyses were performed in triplicate.
FRAP solution was freshly prepared by mixing 25 mL acetate buffer (0.30 M) at pH
3.6, 2.5 mL ferric chloride (20 mM) and 2.5 mL 2,4,6-tris(2-pyridyl)-s-triazine (10
mM). In a test tube containing 4.5 mL of FRAP reagent were added 0.5 mL of 500 µM
solutions of 4a-d, 5a-c and 6a-c (in methanol). After a 10-minute incubation at 37°C the
absorbance was recorded in a spectrophotometer at λ = 593 nm using methanol as blank
reference11. A standard curve was obtained by plotting the absorbance read after
of quercetin (Q) equivalent to mol of inhibitor (mmol Q/mol), obtained in triplicates.

## O=c1oc2cc(OCCN3CCCCC3)ccc2cc1Br [Compound 4a]
AChE from electric eel; read-out: IC50(μM)±SD AChE
  IC50: 0.18 ± 0.009 µM
AChE from electric eel
  SI (selectivity index, BuChE IC50/AChE IC50): 47
BuChE from horse serum
  IC50: 8.37 ± 0.167 µM
[1]; 10 µM
  Neuroblastoma cell viability, MTT reduction relative to control cells, Mean ± SD: 89.16 ± 11.28%
[1]; 50 µM
  Neuroblastoma cell viability, MTT reduction relative to control cells, Mean ± SD: 103.2 ± 13.68%
[1]
  cytotoxicity against N2a cells (in words): not cytotoxic

## O=c1oc2cc(OCCCN3CCCCC3)ccc2cc1Br [Compound 4b]
AChE from electric eel; read-out: IC50(μM)±SD AChE
  IC50: 0.37 ± 0.008 µM
AChE from electric eel
  SI (selectivity index, BuChE IC50/AChE IC50): 42
BuChE from horse serum
  IC50: 15.87 ± 0.007 µM
[1]; 10 µM
  Neuroblastoma cell viability, MTT reduction relative to control cells, Mean ± SD: 93.34 ± 8.19%
[1]; 50 µM
  Neuroblastoma cell viability, MTT reduction relative to control cells, Mean ± SD: 87.60 ± 4.39%

## O=c1oc2cc(OCCCCN3CCCCC3)ccc2cc1Br [Compound 4c]
AChE from electric eel; read-out: IC50(μM)±SD AChE
  IC50: 0.55 ± 0.01 µM
AChE from electric eel
  SI (selectivity index, BuChE IC50/AChE IC50): 9
BuChE from horse serum
  IC50: 4.92 ± 0.095 µM
[1]; 10 µM
  Neuroblastoma cell viability, MTT reduction relative to control cells, Mean ± SD: 94.43 ± 4.28%
[1]; 50 µM
  Neuroblastoma cell viability, MTT reduction relative to control cells, Mean ± SD: 88.88 ± 19.01%

## O=c1oc2cc(OCCCCCN3CCCCC3)ccc2cc1Br [Compound 4d]
AChE from electric eel; read-out: IC50(μM)±SD AChE
  IC50: 0.14 µM and 0.15 µM
AChE from electric eel
  SI (selectivity index, BuChE IC50/AChE IC50): 33
BuChE from horse serum
  IC50: 5.01 ± 0.253 µM
[2]
  inhibition type in AChE: mixed-type inhibition
  Ki’ (non-competitive inhibition constant) on AChE: 157.350 ± 4.674 nM
  Ki: 21.3 ± 0.816 nM
[2]; inhibitor 0.1 μM
  Vmax on AChE: 2.209 ± 0.060 µM/min
[2]; inhibitor 0.2 μM
  Vmax on AChE: 1.752 ± 0.198 µM/min
[3]
  inhibition type in BuChE: mixed-type inhibition
  Ki’ (non-competitive inhibition constant) on BuChE: 6.621 ± 0.322 µM
  Ki: 2130 ± 148 nM
[3]; inhibitor 0.1 μM (so in the source)
  Vmax on BuChE: 5.791 ± 0.185 µM/min
[3]; inhibitor 0.2 μM (so in the source)
  Vmax on BuChE: 4.669 ± 0.229 µM/min
[1]; 10 µM
  Neuroblastoma cell viability, MTT reduction relative to control cells, Mean ± SD: 80.10 ± 7.27%
[1]; 50 µM
  Neuroblastoma cell viability, MTT reduction relative to control cells, Mean ± SD: 62.11 ± 10.09%

## O=c1oc2cc(OCCN3CCCCC3)ccc2cc1-c1ccccc1 [Compound 5a]
AChE from electric eel; read-out: IC50(μM)±SD AChE
  IC50: 0.14 ± 0.009 µM
AChE from electric eel
  SI (selectivity index, BuChE IC50/AChE IC50): 18
BuChE from horse serum
  IC50: 2.5 ± 0.177 µM
[1]; 10 µM
  Neuroblastoma cell viability, MTT reduction relative to control cells, Mean ± SD: 98.37 ± 8.92%
[1]; 50 µM
  Neuroblastoma cell viability, MTT reduction relative to control cells, Mean ± SD: 105.5 ± 14.93%
[1]
  cytotoxicity against N2a cells (in words): not cytotoxic

## O=c1oc2cc(OCCCN3CCCCC3)ccc2cc1-c1ccccc1 [Compound 5b]
AChE from electric eel; read-out: IC50(μM)±SD AChE
  IC50: 0.24 ± 0.014 µM
AChE from electric eel
  SI (selectivity index, BuChE IC50/AChE IC50): 8
BuChE from horse serum
  IC50: 1.86 ± 0.024 µM
[1]; 10 µM
  Neuroblastoma cell viability, MTT reduction relative to control cells, Mean ± SD: 83.55 ± 6.58%
[1]; 50 µM
  Neuroblastoma cell viability, MTT reduction relative to control cells, Mean ± SD: 57.06 ± 8.72%
[1]
  cytotoxicity against N2a cells (in words): increase in toxicity

## O=c1oc2cc(OCCCCCN3CCCCC3)ccc2cc1-c1ccccc1 [Compound 5c]
AChE from electric eel; read-out: IC50(μM)±SD AChE
  IC50: 0.45 ± 0.036 µM
AChE from electric eel
  SI (selectivity index, BuChE IC50/AChE IC50): 2
BuChE from horse serum
  IC50: 0.9 ± 0.001 µM
[1]; 10 µM
  Neuroblastoma cell viability, MTT reduction relative to control cells, Mean ± SD: 117.4 ± 4.86%
[1]; 50 µM
  Neuroblastoma cell viability, MTT reduction relative to control cells, Mean ± SD: 13.47 ± 1.19%
[1]
  cytotoxicity against N2a cells (in words): increase in toxicity

## CN(C)c1ccc(-c2cc3ccc(OCCN4CCCCC4)cc3oc2=O)cc1 [Compound 6a]
AChE from electric eel
  SI (selectivity index, BuChE IC50/AChE IC50): 354
AChE from electric eel; IC50(μM)±SD AChE
  IC50: 0.02 ± 0.001 µM
BuChE from horse serum
  IC50: 6.73 ± 0.04 µM
[4]
  FRAP value, antioxidant index based on quercetine (Q): 7.49 ± 0.61 mmol Q/mol
[2]
  Ki’ (noncompetitive) against AChE: 0.010 µM
  inhibition type in AChE: mixed-type inhibition
  Ki’ (non-competitive inhibition constant) on AChE: 10.499 ± 0.438 nM
  Ki: 1.61 ± 0.066 nM
[2]; inhibitor 0.01 μM
  Vmax on AChE: 1.762 ± 0.128 µM/min
[2]; inhibitor 0.03 μM
  Vmax on AChE: 1.254 ± 0.043 µM/min
[3]
  inhibition type in BuChE: mixed-type inhibition
  Ki’ (non-competitive inhibition constant) on BuChE: 7.376 ± 0.558 µM
  Ki: 2580 ± 236 nM
[3]; inhibitor 0.01 μM (so in the source)
  Vmax on BuChE: 4.837 ± 0.399 µM/min
[3]; inhibitor 0.03 μM (so in the source)
  Vmax on BuChE: 3.224 ± 0.284 µM/min
[1]; 10 µM
  Neuroblastoma cell viability, MTT reduction relative to control cells, Mean ± SD: 92.15 ± 43.03%
[1]; 50 µM
  Neuroblastoma cell viability, MTT reduction relative to control cells, Mean ± SD: 115.9 ± 4.28%
[1]
  cytotoxicity against N2a cells (in words): not cytotoxic

## CN(C)c1ccc(-c2cc3ccc(OCCCN4CCCCC4)cc3oc2=O)cc1 [Compound 6b]
AChE from electric eel; read-out: IC50(μM)±SD AChE
  IC50: 0.33 ± 0.011 µM
AChE from electric eel
  SI (selectivity index, BuChE IC50/AChE IC50): 22
BuChE from horse serum
  IC50: 7.27 ± 0.273 µM
[4]
  FRAP value, antioxidant index based on quercetine (Q): 2.42 ± 0.19 mmol Q/mol
[1]; 10 µM
  Neuroblastoma cell viability, MTT reduction relative to control cells, Mean ± SD: 84.11 ± 11.1%
[1]; 50 µM
  Neuroblastoma cell viability, MTT reduction relative to control cells, Mean ± SD: 16.79 ± 8.41%
[1]
  cytotoxicity against N2a cells (in words): increase in toxicity

## CN(C)c1ccc(-c2cc3ccc(OCCCCCN4CCCCC4)cc3oc2=O)cc1 [Compound 6c]
AChE from electric eel; read-out: IC50(μM)±SD AChE
  IC50: 0.92 µM and 0.96 µM
AChE from electric eel
  SI (selectivity index, BuChE IC50/AChE IC50): 4
BuChE from horse serum
  IC50: 3.85 ± 0.19 µM
[4]
  FRAP value, antioxidant index based on quercetine (Q): 2.77 ± 0.00 mmol Q/mol
[1]; 10 µM
  Neuroblastoma cell viability, MTT reduction relative to control cells, Mean ± SD: 59.04 ± 8.21%
[1]; 50 µM
  Neuroblastoma cell viability, MTT reduction relative to control cells, Mean ± SD: 10.09 ± 3.09%
[1]
  cytotoxicity against N2a cells (in words): increase in toxicity
